In this assay the test system is T241 fibrosarcoma lung metastases. Kind of assay: Mouse T241 fibrosarcoma model: evaluation of lung metastases after amputation of the tumor-bearing foot. The assay is classed as in vivo, male C57BL/6 mice. Conditions: Day 35, soluble CRP-peptide 1.25 μg per dose. As to the method: The CRP-peptide was assayed for activity in the mouse T241 fibrosarcoma model, whereby the ability to block lung metastasis formation is measured.
The procedures have been described in detail previously (Deodhar, et al, Cancer Res 42:5084-5088, 1982). Suspensions of 5×10^5 viable T241 fibrosarcoma cells in 0.1 ml of Hanks's balanced salt solution were injected subcutaneously into the dorsum of one hind foot of ten male C57BL/6 mice (Jackson Laboratories, Bar Harbor, Me.) per experiment. Seventeen days after tumor implantation, the tumor-bearing foot was amputated below the knee. The mean tumor weight at this stage was 152 ±58 (S.E.M.) mg. The tumor weight was determined by subtracting the weight of an amputated normal foot from that of a tumor-bearing foot. Previous studies have shown that T241 fibrosarcoma starts seeding the lung parenchyma by Day 10 after foot tumor implantation; by Day 17, virtually all animals have lung macro- and/or micrometastases. The animals were then randomized into control and experimental groups, and appropriate therapy was started after amputation of the tumor-bearing foot.
Treatments consisted of intravenous (orbital sinus) injections of liposomes containing CRP, liposomal CRP-peptide of Example 2, or liposomal CRP-peptide of Example 2 plus intraperitoneal injections of non-encapsulated soluble recombinant interleukin-2 (Cetus Corp., Emeryville, Calif.), or non-encapsulated interleukin-2 (IL-2) alone, whereas the control groups received either no treatment, liposomes containing buffer medium alone, or liposomes containing buffer medium plus non-encapsulated CRP peptide. […] On Day 35 of the experiment, all animals were killed, and the lungs were evaluated for number and size of metastases.
Tumor metastases could be clearly recognized as raised, hemorrhagic, opaque, and dense nodules, distinguishable from the smooth, glistening, spongy, and pink normal lung parenchyma. […] To obtain an approximate assessment of the total metastatic tumor burden in the lungs, the "metastatic index", reflecting both number and size of metastases, was calculated as follows. […]

With H-IYLGGPFSPNVL-OH [Soluble CRP-peptide], the “No. of Metastatic Foci (+ SEM)” value (MLV: 0.25 μg CRP or CRP-peptide i.v. 3x per week for 2 weeks) worked out at 12.9 ± 2.9. Moreover, the “No. Animals with Lung Metastases” value (MLV: 2.5 μmols lipid containing 0.25 μg CRP or CRP-peptide i.v. 3x per week for 2 weeks) is reported as 10/10. Besides, the “Metastatic Index (+ SEM)” value (mean of group, MLV: 0.25 μg CRP or CRP-peptide i.v. 3x per week for 2 weeks) is 49.7 ± 10.1.

For the origin of these results see patent publication US5783179A, “C-reactive protein fragment with immunomodulatory activity” (Syntex (U.S.A.) Inc., priority 1991, dated 1998).
